According to US7547729B2, “1,3-diphenylprop-2-en-1-one derivative compounds, preparation method thereof and uses of same” (Genfit, priority 2004, dated 2009):

Key:
[1] = biological target: T1, PPARγ (Homo sapiens, UniProt P37231); experiment: PPARγ/Gal4 transactivation system in COS-7 cells; format: cell-based; conditions: 24 hours
T1 construct: expressed in transfected cells; host or cells: COS-7 cells
T1 sequence (P37231 238-503 limits assumed): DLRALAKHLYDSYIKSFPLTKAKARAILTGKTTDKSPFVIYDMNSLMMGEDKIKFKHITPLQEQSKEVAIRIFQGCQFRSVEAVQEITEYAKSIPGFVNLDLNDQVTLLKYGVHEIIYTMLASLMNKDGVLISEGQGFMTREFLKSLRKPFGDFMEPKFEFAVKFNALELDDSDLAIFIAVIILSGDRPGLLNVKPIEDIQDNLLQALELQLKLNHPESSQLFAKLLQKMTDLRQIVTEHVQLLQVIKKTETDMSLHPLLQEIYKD
Description: (§1) COS-7 cells were incubated with different concentrations of the inventive compounds for 24 hours. The results are expressed as the induction factor (ratio of luminescent signal obtained with the compound and that observed without the compound) after the different treatments.
(§2) PPAR activation was tested in vitro in RK13 epitheloid or COS-7 cell lines by measuring the transcriptional activity of chimeras composed of the DNA binding domain of the yeast gal4 transcription factor and the ligand binding domain of the different PPARs. These latter results were then confirmed in cell lines according to the following protocols:
(§3) RK13 cells were from ECACC (Porton Down, UK), COS-7 cells were from the ATCC (American Type Culture Collection) and were grown in DMEM medium supplemented with 10% (VN) fetal calf serum, 100 U/ml penicillin (Gibco, Paisley, UK) and 2 mM L-glutamine (Gibco, Paisley, UK). The culture medium was changed every two days. Cells were kept at 37° C. in a humidified 95% air/5% CO2 atmosphere.
(§4) The plasmids pG5TkpGL3, pRL-CMV, pGal4-hPPARα, pGal4-hPPARγ, pGal4-hPPARδ and pGal4-φ have been described by Raspe, Madsen et al. (1999). The pGal4-mPPARα, pGal4-hPPARγ and pGal4-hPPARδ constructs were obtained by cloning into the pGal4-φ vector of PCR-amplified DNA fragments corresponding to the DEF domains of the human PPARα, PPARγ and PPARδ nuclear receptors.
(§5) RK13 cells were seeded in 24-well culture dishes at 5×10^4 cells/well, COS-7 cells in 96-well culture dishes at 5×10^4 cells/well and transfected for 2 hours with the reporter plasmid pG5TkpGL3 (50 ng/well), the expression vectors pGal4-φ, pGal4-mPPARα, pGal4-hPPARα, pGal4-hPPARγ, pGal4-hPPARδ (100 ng/well) and the transfection efficiency control vector pRL-CMV (1 ng/well) according to the previously described protocol (Raspe, Madsen et al. 1999), then incubated for 36 hours with the test compounds. At the end of the experiment, the cells were lysed (Gibco, Paisley, UK) and luciferase activity was determined with a Dual-Luciferase™ Reporter Assay System kit (Promega, Madison, Wis., USA) for RK13 cells and Steady Glow Luciferase (Promega) for COS-7 cells according to the supplier's instructions as previously described. The protein content of the cell extracts was then measured with the Bio-Rad Protein Assay (Bio-Rad, Munich, Germany) as directed by the supplier.

[2] = system: LDL; experiment: Protection against LDL oxidation by copper (conjugated diene formation); format: biochemical; conditions: 10^−4M; for diene oxidation rate: FIG. 7b
Description: Unless otherwise indicated, the reagents were from Sigma (St Quentin, France). LDL were prepared according to the method described by Lebeau et al. (Lebeau, Furman et al. 2000).
The solutions of test compounds were prepared at 10^−2 M concentration in bicarbonate buffer (pH 9) and diluted in PBS to obtain final concentrations ranging from 0.1 to 100 μM
Prior to oxidation, EDTA was removed from the LDL preparation by dialysis. Oxidation then took place at 30° C. by adding 100 μl of 16.6 μM CuSO4 solution to 160 μL of LDL (125 μg protein/ml) and 20 μl of a test compound solution. The formation of dienes, the species under observation, was followed by measuring optical density at 232 nm in the samples treated with the compounds in the presence or absence of copper. Optical density at 232 nm was measured every 10 minutes for 8 hours in a thermostated spectrophotometer (Tecan Ultra 380). The analyses were performed in triplicate. The compounds were considered to have antioxidant activity when they induced a longer lag phase and reduced the rate of oxidation and the amount of dienes formed in comparison with the control sample.

[3] = biological target: T2, PPARδ (Homo sapiens, UniProt Q03181); experiment: PPARδ/Gal4 transactivation system in COS-7 cells; format: cell-based; conditions: 24 hours
T2 construct: expressed in transfected cells; host or cells: COS-7 cells
T2 sequence (Q03181 211-439 limits assumed): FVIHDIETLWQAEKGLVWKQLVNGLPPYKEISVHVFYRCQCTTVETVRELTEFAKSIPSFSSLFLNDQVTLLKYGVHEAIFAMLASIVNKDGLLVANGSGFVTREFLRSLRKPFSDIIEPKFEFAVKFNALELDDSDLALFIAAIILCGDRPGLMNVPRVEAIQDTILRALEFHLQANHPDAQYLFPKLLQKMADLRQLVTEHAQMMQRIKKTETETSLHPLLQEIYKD
Description: as §1, §2, §3, §4, §5

[4] = system: Apo E2/E2 transgenic mice; experiment: Effects on triglyceride and cholesterol metabolism in Apo E2/E2 transgenic mice; format: in vivo; conditions: gavage, 50 mg/kg/day, seven days
Description: FIGS. 19a, 19b, 19c, 19d, 20a, 20b, 20c and 20d illustrate the effects of treatment with compound 2 (Cpd2), compound 13 (Cpd13), compound 33 (Cpd33) and compound 39 (Cpd39) on triglyceride and cholesterol metabolism in Apo E2/E2 transgenic mice treated by gavage with the compound at a dose of 50 mg/kg/day, for seven days.
Apo E2/E2 transgenic mice were housed in a 12-hour light/dark cycle at a constant temperature of 20±3° C. After a 1-week acclimatization period, the mice were weighed and divided into groups of 6 animals selected such that the distribution of body weight was uniform. The test compounds were suspended in carboxymethylcellulose and administered by gastric lavage at the indicated doses, once a day for 7 days. Animals had access to food and water ad libitum. At the end of the experiments, animals were weighed and sacrificed under anesthesia. Blood was collected on EDTA. Plasma was isolated by centrifugation at 3000 rpm for 20 minutes. Liver samples were removed and stored frozen in liquid nitrogen for later analysis.
Lipid concentrations in plasma (total cholesterol and free cholesterol, triglycerides and phospholipids) were determined by a colorimetric assay (Boehringer, Mannheim, Germany) according to the supplier's instructions. Plasma concentrations of apolipoproteins AI, AII and CIII were determined as previously described (Raspe et al. 1999, Asset G et al., Lipids, 1999).

[5] = biological target: T3, PPARα (Homo sapiens, UniProt Q07869); experiment: PPARα/Gal4 transactivation system in COS-7 cells; format: cell-based; conditions: 24 hours
T3 construct: expressed in transfected cells; host or cells: COS-7 cells
T3 sequence (Q07869 239-466 limits assumed): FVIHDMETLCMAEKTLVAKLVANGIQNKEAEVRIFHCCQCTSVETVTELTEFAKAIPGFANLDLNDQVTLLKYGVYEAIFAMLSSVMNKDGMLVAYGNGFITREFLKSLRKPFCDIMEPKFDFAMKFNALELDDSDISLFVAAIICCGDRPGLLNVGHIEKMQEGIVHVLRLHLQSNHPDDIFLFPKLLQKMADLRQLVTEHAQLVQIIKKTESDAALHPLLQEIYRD
Description: as §1, §2, §3, §4, §5

[6] = system: monocyte-derived dendritic cells; experiment: Differentiation of monocytes to dendritic cells (flow cytometry of surface markers); format: cell-based
Description: Compound 39 (10^−6 M) was added at D0 of differentiation of monocytes to dendritic cells. After six days of differentiation (in the presence of cytokines GM-CSF and IL-4), the dendritic cells were analyzed by flow cytometry.
For these experiments, blood samples from volunteer donors (Etablissement Francais du Sang) and monocytes were isolated by a standard protocol using anti-CD14-conjugated magnetic beads (Miltenyi Biotec). Monocytes isolated in this manner were then induced to differentiate by incubation for 6 days in culture medium containing a mixture of cytokines GM-CSF and IL-4 (20 ng/ml for each cytokine).
Compound 39 was added at t=0 and acquisition of the dendritic cell phenotype was followed by expression of the cell surface marker CD1a.

[7] = FIG. 7a, absence of compounds 67.3 minutes
[8] = compound added at t=0, six days differentiation, data not shown

Row | Structure (SMILES) | Induction factor ([1]; 0.001 μM) | Induction factor ([1]; 0.003 μM) | Induction factor ([1]; 0.01 μM) | Induction factor ([1]; 0.03 μM) | Induction factor ([1]; 0.1 μM) | Induction factor ([1]; 0.3 μM) | Induction factor ([1]; 1 μM) | Induction factor ([1]; 3 μM) | lag phase [2, 7] | diene oxidation rate ([2]; absence of compounds 2.5) | Induction factor ([3]; 0.01 μM) | plasma cholesterol [4] | plasma triglycerides [4] | Induction factor ([5]; 0.001 μM) | Induction factor ([5]; 0.003 μM) | Induction factor ([5]; 0.01 μM) | Induction factor ([5]; 0.03 μM) | Induction factor ([5]; 0.1 μM) | Induction factor ([5]; 0.3 μM) | Induction factor ([5]; 1 μM) | further results
1 | CSc1c(C)cc(C(=O)/C=C/c2cc(C)c(OC(C)(C)C(=O)O)c(C)c2)cc1C [compound 13, 1-(4-Methylthio-3,5-dimethylphenyl)-3-(4-carboxydimethylmethyloxy-3,5-dimethylphenyl)prop-2-en-1-one] | 0.99 | 1.15 | 1.67 | 2.18 | 3.01 | 3.66 | 4.03 | 3.89 | 219 min | 1.5 nmol/min/mg of LDL | 1.50 | decrease | decrease | 1.10 | 1.58 | 4.99 | 10.89 | 16.87 | 15.95 | 17.05 | Induction factor ([3]; 0.03 μM): 2.17; Induction factor ([3]; 0.1 μM): 3.37; Induction factor ([3]; 0.3 μM): 14.00; Induction factor ([3]; 1 μM): 28.75; Induction factor ([3]; 3 μM): 27.72
2 | CCCCCCSc1c(C)cc(C(=O)/C=C/c2cc(C)c(OC(C)(C)C(=O)O)c(C)c2)cc1C [compound 39, 1-(4-Hexylthio-3,5-dimethylphenyl)-3-(4-carboxydimethylmethyloxy-3,5-dimethylphenyl)prop-2-en-1-one] | 0.95 | 0.96 | 1.56 | 3.06 | 4.08 | 4.86 | 4.78 | 4.72 | – | – | – | decrease | decrease | 1.08 | 1.17 | 3.19 | 7.69 | 9.68 | 10.16 | 10.42 | lag phase ([2]; FIG. 8a, absence of compounds 67.3 minutes): 133 min; rate of LDL oxidation ([2]; FIG. 8b, absence of compounds 2.5): 1.2 nmol/min/mg; total amount of dienes formed ([2]; FIG. 8c, absence of compound 432.3): 371.2 nmol/mg; expression of CD1a at the cell surface ([6]; 10^−6 M added at D0, six days with GM-CSF and IL-4): almost totally inhibiting; CD86 expression [6, 8]: slightly increased; expression of the costimulation molecule CD80 [6, 8]: reduced, to a lesser extent; Induction factor ([5]; 3 μM): 9.96
3 | Cc1cc(/C=C/C(=O)c2ccc(Oc3ccccc3)cc2)cc(C)c1OC(C)(C)C(=O)O [compound 33, 1-(4-Phenyloxyphenyl)-3-(4-carboxydimethylmethyloxy-3,5-dimethylphenyl)prop-2-en-1-one] | 1.18 | 1.61 | 2.65 | 3.54 | 4.88 | 5.95 | 6.93 | 7.99 | 148 min | 1.4 nmol/min/mg of LDL | 1.87 | decrease | decrease | 5.23 | 15.18 | 19.53 | 19.71 | 19.17 | 20.82 | 19.97 | Induction factor ([1]; 10 μM): 6.30; total amount of dienes formed ([2]; FIG. 7c, absence of compounds 432.5): 399 nmol/mg of LDL; Induction factor ([3]; 0.001 μM): 1.17; Induction factor ([3]; 0.003 μM): 1.23; Induction factor ([3]; 0.03 μM): 5.29; Induction factor ([3]; 0.1 μM): 15.01; Induction factor ([3]; 0.3 μM): 33.89; Induction factor ([3]; 1 μM): 74.09; Induction factor ([3]; 3 μM): 90.84
4 | Cc1cc(/C=C/C(=O)c2ccc(OCCCCCC3CCSS3)cc2)cc(C)c1OC(C)(C)C(=O)O (racemic) [compound 6, 1-(4-((R,S)-5-[1,2]dithiolan-3-ylpentyloxy)phenyl)-3-(4-carboxydimethylmethyloxy-3,5-dimethylphenyl)prop-2-en-1-one] | – | – | – | – | – | – | 4.12 | – | – | – | – | – | – | – | – | – | – | – | – | 5.48 | Induction factor ([1]; 10 μM): 6.83; lag phase ([2]; FIG. 2a, copper alone 132 minutes): 205 min; rate of diene formation ([2]; FIG. 2b, copper alone 2.2): 1.7 nmol/min/mg; total amount of dienes formed ([2]; FIG. 2c, copper alone 511): 443 nmol/mg; Induction factor ([5]; 10 μM): 7.01
